How the values were obtained:
Type in all cases: in vivo
[1] = tested on: Gäumannomyces graminis; experiment: Example B-1: activity against Gäumannomyces graminis on wheat, seed treatment; settings: winterwheat seed treatment; for % root browning: inoculated field soil, 5 weeks at 17° C., untreated 50; for Control: relative to untreated
Method: After application of the active ingredient formulated as a flowable concentrate for seed treatment onto seeds of winterwheat the seeds are sown in trays filled with field soil. The field soil has been inoculated artificially before sowing with Gäumannomyces graminis by thoroughly mixing mycelium and soil. The trial is kept in a growth room for 5 weeks at 17° C. and a 14 hr light period. The following assessments are made: % root browning. Each number is determined for 30 seeds per treatment (3 replicates a 10 seeds).

[2] = tested on: Microdochium nivale; experiment: Example B-2: activity against Microdochium nivale on wheat, seed treatment; settings: M. nivale-infected winterwheat seeds, 10 g/100 kg seed
Method: After application of the active ingredient formulated as a flowable concentrate for seed treatment onto M. nivale-infected seeds of winterwheat the seeds are sown in trays filled with planting soil. The trial is kept for 4 weeks in a growth room at 4° C. and darkness. Then the temperature is increased to 15° C. and a 12 hr light period is provided. After development of the primary leaf plants are kept at 10° C. and high humidity until the trial is finished. The following assessments are made: number of infected plants. Each number is determined for 100 seeds per treatment (2 replicates a 50 seeds).

[3] = tested on: Pyrenophora graminea; experiment: Example B-3: activity against Pyrenophora graminea on barley, seed treatment; settings: P. graminea-infected winterbarley seeds, 10 g/100 kg seed
Method: After application of the active ingredient formulated as a flowable concentrate for seed treatment onto P. graminea-infected seeds of winterbarley the seeds are sown in trays filled with field soil. The trays are kept in a growth room for 3 weeks at 4° C. After this period the trial is transferred to a greenhouse where a temperature of 12° C. and a 14 hr light period is provided. The following assessments are made: number of infected plants. Each number is determined for 200 seeds per treatment (2 replicates a 100 seeds).

[4] = tested on: Ustilago nuda; experiment: Example B-4: activity against Ustilago nuda on barley, seed treatment; settings: U. nuda-infected winterbarley seeds; for % Control: relative to untreated; for % infected heads: untreated 23.1
Method: (§1) After application of the active ingredient formulated as a flowable concentrate for seed treatment onto U. nuda-infected seeds of winterbarley the seeds are sown in trays filled with field soil. The trays are transferred to a growth room and kept there for 2 days at 20° C. and then for 2 weeks at 2° C. After this period the trial is transferred to a greenhouse where a temperature of 15° C. and a 14 hr light period is provided until flowering. The following assessments are made: number of infected heads. Each number is determined for 200 seeds per treatment (2 replicates a 100 seeds).

[5] = tested on: Ustilago nuda; experiment: Example B-5: comparison test with prior art compound B, activity against Ustilago nuda on barley; settings: 10 g active ingredient per 100 kg seed; for % Control / % infected heads: barley seed treatment; for % Control: relative to untreated; for % infected heads: untreated 13
Method: as §1, with “seeds). The activity against Ustilago nuda on barley of the racemic compound of formula Ia according to the invention was compared with racemic compound B, which is described as compound no. 2.69 on pages 7, table 2, and page 16, table 7, of WO 03/074491. The method used to compare the activity is described under example B-4 above.” for “seeds).”

[6] = tested on: Ustilago nuda; experiment: Example B-6: comparison test with prior art compound C, activity against Ustilago nuda on barley; settings: 10 g active ingredient per 100 kg seed; for % Control / % infected heads: barley seed treatment; for % Control: relative to untreated; for % infected heads: untreated 13
Method: as §1, with “seeds). The activity against Ustilago nuda on barley of the racemic compound of formula Ia according to the invention was compared with racemic compound C (trans/cis-ratio: 10:1), which is described as compound no. 2.40 on pages 6 and 7, table 2, of WO 03/074491. The method used to compare the activity is described under example B-4 above.” for “seeds).”

## Cn1cc(C(=O)Nc2ccccc2[C@@H]2C[C@H]2C2CC2)c(C(F)F)n1 (racemic) [Racemic compound of formula Ia]
[1]; 10 g/100 kg seed
  % root browning: 28%
  Control: 44
[1]; 33 g/100 kg seed
  % root browning: 20%
  Control: 60
[2]; relative to untreated
  Control: 86.8
[2]; untreated 38
  % infected plants: 5%
[3]; relative to untreated
  Control: 98.1
[3]; untreated 54
  % infected plants: 1%
[4]; 2.5 g/100 kg seed
  % Control: 100%
  % infected heads: 0%
[4]; 5 g/100 kg seed
  % Control: 100%
  % infected heads: 0%
[5]
  fungicidal action against Ustilago nuda on barley compared with racemic compound B: substantially better fungicidal action
  % Control: 100%
  % infected heads: 0%
[6]
  fungicidal action against Ustilago nuda on barley compared with racemic compound C: substantially better fungicidal action
  % Control: 100%
  % infected heads: 0%

## Cn1cc(C(=O)Nc2ccccc2C2CC2C2CCCC2)c(C(F)F)n1 (racemic) [Racemic compound C, reference compound]
[6]
  % Control: 11%
  % infected heads: 11.6%

## Cn1cc(C(=O)Nc2ccccc2[C@@H]2C[C@H]2c2ccc(Cl)cc2)c(C(F)F)n1 (racemic) [Racemic compound B, reference compound]
[5]
  % Control: 9%
  % infected heads: 11.9%

— US8198215B2, “Methods for protecting seeds” (Sygenta Crop Protection LLC, priority 2005, dated 2012)
